From ChEMBL document CHEMBL3120141, “Discovery of (1R,6S)-5-[4-(1-cyclobutyl-piperidin-4-yloxy)-phenyl]-3,4-diaza-bicyclo[4.1.0]hept-4-en-2-one (R,S-4a): histamine H(3) receptor inverse agonist demonstrating potent cognitive enhancing and wake promoting activity” (Bioorg Med Chem Lett, 2014)
Converted amounts (≈) assume the structure as drawn. The source made the active and inactive calls. The calls are words filed in the database; no cut-off is given here.

Legend:
[1] = Oral bioavailability in dog at 3 mg/kg; assay type: ADME, organism-based, Canis lupus familiaris; conditions: in vivo
Cytochrome P450 2C9 = Cytochrome P450 2C9 (Homo sapiens, UniProt P11712); experiment: Inhibition of CYP2C9 (unknown origin); assay type: ADME
Rattus norvegicus [2] = experiment: Wake promoting activity in EEG/EMG rat model assessed as cumulative wake time at 30 mg/kg, ip after 7.5 to 18 hrs relative to vehicle-treated control; assay type: functional; conditions: route intraperitoneal
[3] = Plasma protein binding in human; assay type: ADME, cell-free; conditions: read-out: PPB (converted)
Cytochrome P450 2C19 = Cytochrome P450 2C19 (Homo sapiens, UniProt P33261); experiment: Inhibition of CYP2C19 (unknown origin); assay type: ADME
[4] = Solubility of the compound in water at pH 2; assay type: physicochemical
Cytochrome P450 3A4 = Cytochrome P450 3A4 (Homo sapiens, UniProt P08684); experiment: Inhibition of CYP3A4 (unknown origin); assay type: ADME
[5] = Oral bioavailability in rat at 5 mg/kg; assay type: ADME, organism-based; conditions: in vivo
Rattus norvegicus [6] = experiment: Wake promoting activity in ip dosed EEG/EMG rat model assessed as cumulative wake time after 4 hrs; assay type: functional, organism-based
[7] = Clearance in monkey at 1 mg/kg, iv; assay type: ADME, organism-based, Macaca mulatta; set-up: dose 1 mg/kg, route intravenous; conditions: rhesus monkey, in vivo
Rattus norvegicus [8] = experiment: Wake promoting activity in EEG/EMG rat model assessed as cumulative wake time at 3 mg/kg, ip after 4 hrs (reference value: 86 +/- 7 mins); assay type: functional; conditions: route intraperitoneal
[9] = AUC in rat at 5 mg/kg, po; assay type: ADME, organism-based, Plasma; set-up: dose 5 mg/kg, route oral; conditions: plasma
Rattus norvegicus [10] = experiment: Enhancement of short term memory in rat social recognition memory model assessed as decrease in investigation ratio at 0.03 to 0.3 mg/kg, po; assay type: functional, organism-based
Cytochrome P450 2D6 = Cytochrome P450 2D6 (Homo sapiens, UniProt P10635); experiment: Inhibition of CYP2D6 (unknown origin); assay type: ADME
[11] = Cmax in dog at 3 mg/kg, po; assay type: ADME, organism-based, Canis lupus familiaris; set-up: dose 3 mg/kg, route oral; conditions: in vivo
[12] = Solubility of the compound in water at pH 7.4; assay type: physicochemical
[13] = biological target: Histamine H1 receptor (Homo sapiens) (UniProt P35367); experiment: Inhibition of human histamine H1 receptor at 10 uM
[14] = Half life in mouse liver microsomes; assay type: ADME, Microsome
Rattus norvegicus [15] = experiment: Wake promoting activity in EEG/EMG rat model assessed as cumulative wake time at 30 mg/kg, ip after 4 hrs (reference value: 86 +/- 7 mins); assay type: functional; conditions: route intraperitoneal
[16] = Plasma protein binding in rat; assay type: ADME, cell-free; conditions: read-out: PPB (converted)
Rattus norvegicus [17] = experiment: Toxicity in EEG/EMG rat model assessed as abnormal behavior at 1 to 30 mg/kg, ip; assay type: organism-based; set-up: dose 1-30 mg/kg, route intraperitoneal; conditions: in vivo
Rattus norvegicus [18] = experiment: Toxicity in EEG/EMG rat model assessed as EEG activity at 1 to 30 mg/kg, ip; assay type: organism-based; set-up: dose 1-30 mg/kg, route intraperitoneal; conditions: in vivo
Histamine H3 receptor [19] = biological target: Histamine H3 receptor (Rattus norvegicus, UniProt Q9QYN8); experiment: Displacement of [3H]NAMH from rat histamine H3 receptor transfected in CHO cells; assay type: cell-based
Rattus norvegicus [20] = experiment: Wake promoting activity in EEG/EMG rat model assessed as cumulative wake time at 30 mg/kg, ip after 1.5 hrs relative to vehicle-treated control; assay type: functional; conditions: route intraperitoneal
[21] = Volume of distribution at steady state in monkey at 1 mg/kg, iv; assay type: ADME, organism-based, Macaca mulatta; set-up: dose 1 mg/kg, route intravenous; conditions: rhesus monkey, in vivo, read-out: Vdss
Rattus norvegicus [22] = experiment: Wake promoting activity in EEG/EMG rat model assessed as cumulative wake time at 10 mg/kg, ip after 4 hrs (reference value: 86 +/- 7 mins); assay type: functional; conditions: route intraperitoneal
[23] = AUC in monkey at 3 mg/kg, po; assay type: ADME, organism-based, Macaca mulatta; set-up: dose 3 mg/kg, route oral; conditions: rhesus monkey, plasma
Histamine H3 receptor [24] = biological target: T1, Histamine H3 receptor (Homo sapiens, UniProt Q9Y5N1); experiment: Displacement of [3H]NAMH from human histamine H3 receptor transfected in CHO cells; assay type: cell-based
[25] = Volume of distribution at steady state in dog at 1 mg/kg, iv; assay type: ADME, organism-based, Canis lupus familiaris; set-up: dose 1 mg/kg, route intravenous; conditions: in vivo, read-out: Vdss
[26] = Ratio of drug uptake in brain to plasma in rat at 10 mg/kg, ip after 6 hrs; assay type: ADME, organism-based; set-up: dose 10 mg/kg, route intraperitoneal; conditions: read-out: BPR
[27] = Terminal half life in monkey at 1 mg/kg, iv; assay type: ADME, organism-based, Macaca mulatta; set-up: dose 1 mg/kg, route intravenous; conditions: rhesus monkey, in vivo, read-out: beta t1/2 (converted)
[28] = Cmax in monkey at 3 mg/kg, po; assay type: ADME, organism-based, Macaca mulatta; set-up: dose 3 mg/kg, route oral; conditions: rhesus monkey, in vivo
[29] = biological target: Histamine H4 receptor (Homo sapiens) (UniProt Q9H3N8); experiment: Inhibition of human histamine H4 receptor at 10 uM
Rattus norvegicus [30] = experiment: Wake promoting activity in EEG/EMG rat model assessed as cumulative wake time at 1 mg/kg, ip after 4 hrs (reference value: 86 +/- 7 mins); assay type: functional; conditions: route intraperitoneal
[31] = Ratio of drug uptake in brain to plasma in dog at 5 mg/kg, po after 6 hrs; assay type: ADME, organism-based, Canis lupus familiaris; set-up: dose 5 mg/kg, route oral; conditions: read-out: BPR
[32] = Half life in monkey liver microsomes; assay type: ADME, Macaca mulatta, Microsome; conditions: rhesus monkey
Rattus norvegicus [33] = experiment: Wake promoting activity in EEG/EMG rat model assessed as cumulative wake time at 10 mg/kg, ip after 1.5 hrs relative to vehicle-treated control; assay type: functional; conditions: route intraperitoneal
[34] = biological target: Voltage-gated inwardly rectifying potassium channel KCNH2 (Homo sapiens, UniProt Q12809); experiment: Inhibition of human ERG channel by patch clamp technique
[35] = Cmax in rat at 5 mg/kg, po; assay type: ADME, organism-based; set-up: dose 5 mg/kg, route oral; conditions: in vivo
[36] = Half life in rat liver microsomes; assay type: ADME
Rattus norvegicus [37] = experiment: Toxicity in EEG/EMG rat model assessed as sleep rebound at 1 to 30 mg/kg, ip; assay type: organism-based; set-up: dose 1-30 mg/kg, route intraperitoneal; conditions: in vivo
[38] = Volume of distribution at steady state in rat at 1 mg/kg, iv; assay type: ADME, organism-based; set-up: dose 1 mg/kg, route intravenous; conditions: in vivo, read-out: Vdss
[39] = Oral bioavailability in monkey at 3 mg/kg; assay type: ADME, organism-based, Macaca mulatta; conditions: rhesus monkey, in vivo
[40] = Terminal half life in dog at 1 mg/kg, iv; assay type: ADME, organism-based, Canis lupus familiaris; set-up: dose 1 mg/kg, route intravenous; conditions: in vivo, read-out: beta t1/2 (converted)
[41] = Half life in dog liver microsomes; assay type: ADME, Canis lupus familiaris
Rattus norvegicus [42] = experiment: In vivo inhibition of histamine H3 receptor in ip dosed rat dipsogenia model assessed as inhibition of RAMH-induced dipsogenia; assay type: functional
[43] = Terminal half life in rat at 1 mg/kg, iv; assay type: ADME, organism-based; set-up: dose 1 mg/kg, route intravenous; conditions: in vivo, read-out: beta t1/2 (converted)
[44] = Half life in human liver microsomes; assay type: ADME
Cytochrome P450 1A2 = biological target: T2, Cytochrome P450 1A2 (Homo sapiens, UniProt P05177); experiment: Inhibition of CYP1A2 (unknown origin); assay type: ADME
T2 sequence (P05177 whole entry): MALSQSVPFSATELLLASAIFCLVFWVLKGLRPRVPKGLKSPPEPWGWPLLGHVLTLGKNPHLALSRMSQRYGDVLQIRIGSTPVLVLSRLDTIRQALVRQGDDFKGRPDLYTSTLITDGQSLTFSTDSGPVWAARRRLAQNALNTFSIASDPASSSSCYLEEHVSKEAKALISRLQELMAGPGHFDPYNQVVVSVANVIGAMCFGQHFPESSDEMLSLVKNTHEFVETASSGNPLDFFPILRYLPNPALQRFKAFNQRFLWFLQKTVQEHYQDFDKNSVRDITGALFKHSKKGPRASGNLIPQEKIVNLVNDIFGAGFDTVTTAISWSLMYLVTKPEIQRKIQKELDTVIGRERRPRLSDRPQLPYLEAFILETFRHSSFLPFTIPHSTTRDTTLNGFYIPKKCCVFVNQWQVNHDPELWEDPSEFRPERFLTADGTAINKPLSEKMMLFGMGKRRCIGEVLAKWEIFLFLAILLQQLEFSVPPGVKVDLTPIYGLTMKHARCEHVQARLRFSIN

[45] = Apparent permeability across human Caco2 cells; assay type: ADME, cell-based; conditions: Caco-2
[46] = AUC in dog at 3 mg/kg, po; assay type: ADME, organism-based, Canis lupus familiaris; set-up: dose 3 mg/kg, route oral; conditions: plasma
[47] = Clearance in dog at 1 mg/kg, iv; assay type: ADME, organism-based, Canis lupus familiaris; set-up: dose 1 mg/kg, route intravenous; conditions: in vivo
[48] = Clearance in rat at 1 mg/kg, iv; assay type: ADME, organism-based; set-up: dose 1 mg/kg, route intravenous; conditions: in vivo
[49] = biological target: Histamine H2 receptor (Homo sapiens) (UniProt P25021); experiment: Inhibition of human histamine H2 receptor at 10 uM
Histamine H3 receptor [50] = biological target: T1, Histamine H3 receptor; experiment: Inverse agonist activity at human histamine H3 receptor by [35S]GTPgammaS binding assay; assay type: functional
[51] = Plasma protein binding in dog; assay type: ADME, cell-free, Canis lupus familiaris; conditions: read-out: PPB (converted)

T1 sequence (Q9Y5N1 whole entry): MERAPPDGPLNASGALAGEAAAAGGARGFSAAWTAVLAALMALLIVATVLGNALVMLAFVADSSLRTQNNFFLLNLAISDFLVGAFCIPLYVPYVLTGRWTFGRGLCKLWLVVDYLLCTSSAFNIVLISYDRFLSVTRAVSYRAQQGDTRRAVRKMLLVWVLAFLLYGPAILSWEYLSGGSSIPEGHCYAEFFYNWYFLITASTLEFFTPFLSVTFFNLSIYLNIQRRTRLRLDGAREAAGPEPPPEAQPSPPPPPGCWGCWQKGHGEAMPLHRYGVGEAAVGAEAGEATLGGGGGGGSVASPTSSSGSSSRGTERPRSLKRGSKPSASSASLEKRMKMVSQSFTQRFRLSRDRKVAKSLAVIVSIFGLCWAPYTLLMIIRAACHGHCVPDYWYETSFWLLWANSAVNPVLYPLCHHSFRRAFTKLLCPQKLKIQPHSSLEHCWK
Chain of Cytochrome P450 3A4 (P08684 whole entry): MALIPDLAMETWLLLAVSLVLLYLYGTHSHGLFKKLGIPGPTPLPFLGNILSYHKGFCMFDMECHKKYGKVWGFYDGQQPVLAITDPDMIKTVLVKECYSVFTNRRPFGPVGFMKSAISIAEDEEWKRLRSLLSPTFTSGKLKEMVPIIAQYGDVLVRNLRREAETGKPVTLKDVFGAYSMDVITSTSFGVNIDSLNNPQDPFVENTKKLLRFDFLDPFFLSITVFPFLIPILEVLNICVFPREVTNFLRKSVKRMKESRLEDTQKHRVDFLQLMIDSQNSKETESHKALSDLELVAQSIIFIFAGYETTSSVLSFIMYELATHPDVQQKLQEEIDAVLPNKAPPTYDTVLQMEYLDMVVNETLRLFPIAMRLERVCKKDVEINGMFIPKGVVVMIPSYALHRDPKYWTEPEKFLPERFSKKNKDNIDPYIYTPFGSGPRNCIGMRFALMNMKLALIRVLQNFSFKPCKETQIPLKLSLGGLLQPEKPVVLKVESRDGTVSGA
Chain of Histamine H4 receptor (Homo sapiens) (Q9H3N8 whole entry): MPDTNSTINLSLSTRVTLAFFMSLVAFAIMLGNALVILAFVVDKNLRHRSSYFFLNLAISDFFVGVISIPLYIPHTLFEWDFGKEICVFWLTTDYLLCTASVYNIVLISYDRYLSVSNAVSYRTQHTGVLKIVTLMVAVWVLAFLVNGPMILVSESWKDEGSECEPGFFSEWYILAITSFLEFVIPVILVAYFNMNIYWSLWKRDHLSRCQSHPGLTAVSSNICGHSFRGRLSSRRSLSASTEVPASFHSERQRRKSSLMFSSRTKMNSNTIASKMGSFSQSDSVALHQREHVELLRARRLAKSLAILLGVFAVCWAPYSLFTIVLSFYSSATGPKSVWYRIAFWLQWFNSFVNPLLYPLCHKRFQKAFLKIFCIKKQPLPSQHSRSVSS
Chain of Cytochrome P450 2D6 (P10635 whole entry): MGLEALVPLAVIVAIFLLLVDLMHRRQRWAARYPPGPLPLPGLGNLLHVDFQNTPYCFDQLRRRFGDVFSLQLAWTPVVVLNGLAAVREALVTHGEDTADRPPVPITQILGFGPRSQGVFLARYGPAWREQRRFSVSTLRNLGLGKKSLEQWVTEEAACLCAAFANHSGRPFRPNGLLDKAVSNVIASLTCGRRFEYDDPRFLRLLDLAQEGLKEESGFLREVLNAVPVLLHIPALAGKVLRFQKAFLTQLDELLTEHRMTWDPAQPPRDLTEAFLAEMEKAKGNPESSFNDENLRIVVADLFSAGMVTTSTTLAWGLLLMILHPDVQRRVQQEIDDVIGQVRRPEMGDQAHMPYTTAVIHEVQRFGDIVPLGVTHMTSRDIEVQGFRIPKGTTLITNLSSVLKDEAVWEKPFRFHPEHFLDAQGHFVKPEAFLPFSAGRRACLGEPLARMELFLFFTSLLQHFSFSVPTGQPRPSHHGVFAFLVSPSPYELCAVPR
Chain of Histamine H1 receptor (Homo sapiens) (P35367 whole entry): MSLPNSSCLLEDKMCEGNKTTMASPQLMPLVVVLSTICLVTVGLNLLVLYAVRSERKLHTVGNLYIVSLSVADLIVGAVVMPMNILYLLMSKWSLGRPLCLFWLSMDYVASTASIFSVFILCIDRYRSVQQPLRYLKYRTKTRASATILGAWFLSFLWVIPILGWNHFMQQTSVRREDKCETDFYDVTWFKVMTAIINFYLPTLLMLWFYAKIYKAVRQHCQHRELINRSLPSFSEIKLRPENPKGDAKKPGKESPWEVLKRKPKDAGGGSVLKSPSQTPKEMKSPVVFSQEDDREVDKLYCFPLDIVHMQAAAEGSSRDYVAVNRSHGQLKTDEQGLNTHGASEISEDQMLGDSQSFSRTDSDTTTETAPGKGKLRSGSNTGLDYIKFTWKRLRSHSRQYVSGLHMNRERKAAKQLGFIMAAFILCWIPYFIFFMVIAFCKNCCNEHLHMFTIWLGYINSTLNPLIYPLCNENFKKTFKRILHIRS
Chain of Cytochrome P450 2C9 (P11712 whole entry): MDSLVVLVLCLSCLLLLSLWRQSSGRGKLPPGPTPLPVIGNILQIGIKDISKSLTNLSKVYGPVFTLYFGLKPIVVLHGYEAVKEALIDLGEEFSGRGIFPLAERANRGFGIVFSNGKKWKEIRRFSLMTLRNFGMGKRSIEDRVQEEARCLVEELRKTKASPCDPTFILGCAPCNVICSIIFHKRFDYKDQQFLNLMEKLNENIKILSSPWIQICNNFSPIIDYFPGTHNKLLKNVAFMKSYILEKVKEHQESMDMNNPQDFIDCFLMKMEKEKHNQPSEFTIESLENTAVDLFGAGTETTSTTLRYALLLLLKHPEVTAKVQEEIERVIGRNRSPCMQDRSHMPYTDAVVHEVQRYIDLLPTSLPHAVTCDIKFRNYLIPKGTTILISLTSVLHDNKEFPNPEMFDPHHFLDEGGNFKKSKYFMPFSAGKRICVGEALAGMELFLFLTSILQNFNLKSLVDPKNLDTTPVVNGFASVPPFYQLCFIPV
Chain of Cytochrome P450 2C19 (P33261 whole entry): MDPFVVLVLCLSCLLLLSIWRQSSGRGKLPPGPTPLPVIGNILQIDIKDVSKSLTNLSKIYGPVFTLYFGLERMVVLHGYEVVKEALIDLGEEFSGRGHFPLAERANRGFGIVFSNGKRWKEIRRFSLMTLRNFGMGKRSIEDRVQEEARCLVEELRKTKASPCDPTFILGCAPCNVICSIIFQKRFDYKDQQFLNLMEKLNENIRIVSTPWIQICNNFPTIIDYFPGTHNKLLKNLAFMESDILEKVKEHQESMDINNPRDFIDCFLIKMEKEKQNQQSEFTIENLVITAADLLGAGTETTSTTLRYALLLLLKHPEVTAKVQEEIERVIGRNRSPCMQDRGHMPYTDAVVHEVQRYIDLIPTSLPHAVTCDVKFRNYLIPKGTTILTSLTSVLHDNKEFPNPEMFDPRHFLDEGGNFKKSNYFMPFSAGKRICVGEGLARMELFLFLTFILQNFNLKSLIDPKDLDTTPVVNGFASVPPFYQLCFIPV
Chain of Voltage-gated inwardly rectifying potassium channel KCNH2 (Q12809 whole entry): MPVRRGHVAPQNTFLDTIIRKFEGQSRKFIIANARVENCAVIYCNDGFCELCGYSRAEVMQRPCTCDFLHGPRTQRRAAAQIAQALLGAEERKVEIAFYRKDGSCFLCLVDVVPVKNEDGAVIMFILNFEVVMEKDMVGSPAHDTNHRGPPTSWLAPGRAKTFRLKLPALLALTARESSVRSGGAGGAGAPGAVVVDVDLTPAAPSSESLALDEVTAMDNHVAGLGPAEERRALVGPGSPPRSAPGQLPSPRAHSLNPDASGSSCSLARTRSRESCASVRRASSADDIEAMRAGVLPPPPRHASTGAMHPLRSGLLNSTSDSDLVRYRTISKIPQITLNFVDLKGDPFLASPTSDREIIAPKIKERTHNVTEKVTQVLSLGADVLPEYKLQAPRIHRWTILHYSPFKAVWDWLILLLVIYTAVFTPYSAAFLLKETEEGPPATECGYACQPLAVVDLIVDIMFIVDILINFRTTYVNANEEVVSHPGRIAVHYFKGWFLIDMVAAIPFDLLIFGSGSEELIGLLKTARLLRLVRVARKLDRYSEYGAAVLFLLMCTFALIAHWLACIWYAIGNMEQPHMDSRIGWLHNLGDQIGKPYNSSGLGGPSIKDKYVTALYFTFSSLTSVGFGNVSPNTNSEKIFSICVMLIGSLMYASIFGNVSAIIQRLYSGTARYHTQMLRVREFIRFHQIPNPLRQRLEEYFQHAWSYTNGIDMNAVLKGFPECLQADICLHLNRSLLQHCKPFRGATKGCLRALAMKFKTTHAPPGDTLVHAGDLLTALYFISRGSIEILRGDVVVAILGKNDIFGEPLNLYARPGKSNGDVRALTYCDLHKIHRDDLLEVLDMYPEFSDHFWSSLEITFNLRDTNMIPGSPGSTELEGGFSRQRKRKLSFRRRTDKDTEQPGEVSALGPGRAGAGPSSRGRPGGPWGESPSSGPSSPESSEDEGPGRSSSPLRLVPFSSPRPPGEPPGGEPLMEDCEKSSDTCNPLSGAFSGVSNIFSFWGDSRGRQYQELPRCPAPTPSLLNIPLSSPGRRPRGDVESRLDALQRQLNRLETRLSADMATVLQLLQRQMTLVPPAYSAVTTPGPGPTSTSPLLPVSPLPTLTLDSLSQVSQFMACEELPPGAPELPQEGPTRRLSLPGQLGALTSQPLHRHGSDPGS
Chain of Histamine H2 receptor (Homo sapiens) (P25021 whole entry): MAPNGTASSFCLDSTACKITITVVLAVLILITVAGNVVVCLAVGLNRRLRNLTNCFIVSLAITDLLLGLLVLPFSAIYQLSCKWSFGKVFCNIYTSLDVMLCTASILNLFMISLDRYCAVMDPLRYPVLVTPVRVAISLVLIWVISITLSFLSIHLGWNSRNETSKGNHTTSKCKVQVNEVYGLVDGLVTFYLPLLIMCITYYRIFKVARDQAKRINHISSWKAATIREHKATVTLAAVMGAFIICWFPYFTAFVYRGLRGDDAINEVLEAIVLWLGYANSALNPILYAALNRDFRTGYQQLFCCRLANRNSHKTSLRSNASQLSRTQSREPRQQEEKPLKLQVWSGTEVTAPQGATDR

O=C1NN=C(c2ccc(OC3CCN(C4CCC4)CC3)cc2)[C@H]2C[C@@H]12
bioavailability [1]: 94% | IC50 (Cytochrome P450 2C9): > 30 µM | Time (Rattus norvegicus [2]): 174 min | fraction unbound [3]: 0.23 | IC50 (Cytochrome P450 2C19): > 30 µM | solubility [4]: > 1000 µg/mL | IC50 (Cytochrome P450 3A4): > 30 µM | bioavailability [5]: 92% | Activity (Rattus norvegicus [6]): Dose-dependent effect | clearance [7]: 8 mL/min/kg | Time (Rattus norvegicus [8]): 129 min | AUC [9]: 8320 ng·h/mL | Activity (Rattus norvegicus [10]): Active | IC50 (Cytochrome P450 2D6): > 30 µM | Cmax [11]: 502 ng/mL | solubility [12]: 800 µg/mL (≈ 2360 µM) | inhibition [13]: < 10% | half-life [14]: > 0.667 h | Time (Rattus norvegicus [15]): 217 min | fraction unbound [16]: 0.23 | Activity (Rattus norvegicus [17]): Non-toxic | Activity (Rattus norvegicus [18]): Non-toxic | Ki (Histamine H3 receptor [19]): 0.0073 µM | Activity (Rattus norvegicus [20]): 90% | Vd [21]: 6 L/kg | Time (Rattus norvegicus [22]): 189 min | AUC [23]: 7190 ng·h/mL | Ki (Histamine H3 receptor [24]): 0.0038 µM | Vd [25]: 4.1 L/kg | Kp at 6 h [26]: 3.6 | half-life [27]: 8.6 h | Cmax [28]: 645 ng/mL | inhibition [29]: < 10% | Time (Rattus norvegicus [30]): 121 min | Kp at 6 h [31]: 5.1 | half-life [32]: > 0.667 h | Activity (Rattus norvegicus [33]): >90% | IC50 [34]: 14 µM | Cmax [35]: 888 ng/mL | half-life [36]: > 0.667 h | Activity (Rattus norvegicus [37]): Non-toxic | Vd [38]: 3.7 L/kg | bioavailability [39]: 114% | half-life [40]: 3 h | half-life [41]: > 0.667 h | ED50 (Rattus norvegicus [42]): 0.14 mg/kg | inhibition (Rattus norvegicus [42]): Dose-dependent effect | half-life [43]: 2.6 h | half-life [44]: > 0.667 h | IC50 (Cytochrome P450 1A2): > 30 µM | Papp [45]: 16.4 ×10⁻⁶ cm/s | AUC [46]: 2960 ng·h/mL | clearance [47]: 16 mL/min/kg | clearance [48]: 17 mL/min/kg | inhibition [49]: < 10% | EC50 (Histamine H3 receptor [50]): 0.0004 µM | fraction unbound [51]: 0.23
